Results: ChEMBL document CHEMBL1201862, “PubChem BioAssay data set” (2004)
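Exposure lasted 48 hours, with cells grown in 96-well plates and compounds tested at five concentrations. GI50 = concentration required for 50% inhibition of growth.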 Activity calls are given as the source filed them. Rule as the data show it: active = GI50 up to about 1.1 µM and inactive = higher.

Tests used:
Test in all cases: NCI anticancer screen, dose series, 48 h
IGROV-1 = tested on: IGROV-1
ACHN = tested on: ACHN
SK-OV-3 = tested on: SK-OV-3
MCF7 = tested on: MCF7
SK-MEL-2 = tested on: SK-MEL-2
U-251 = tested on: U-251
HCT-15 = tested on: HCT-15
SK-MEL-5 = tested on: SK-MEL-5
COLO 205 = tested on: COLO 205
CCRF-CEM = tested on: CCRF-CEM
T47D = tested on: T47D
RPMI-8226 = tested on: RPMI-8226
HOP-62 = tested on: HOP-62
TK-10 = tested on: TK-10
OVCAR-8 = tested on: OVCAR-8
A549 = tested on: A549
SK-MEL-28 = tested on: SK-MEL-28
RXF 393 = tested on: RXF 393
NCI-H460 = tested on: NCI-H460
DU-145 = tested on: DU-145

| SMILES | GI50 (IGROV-1) | GI50 (ACHN) | GI50 (SK-OV-3) | GI50 (MCF7) | GI50 (SK-MEL-2) | GI50 (U-251) | GI50 (HCT-15) | GI50 (SK-MEL-5) | GI50 (COLO 205) | GI50 (CCRF-CEM) | GI50 (T47D) | GI50 (RPMI-8226) | GI50 (HOP-62) | GI50 (TK-10) | GI50 (OVCAR-8) | GI50 (A549) | GI50 (SK-MEL-28) | GI50 (RXF 393) | GI50 (NCI-H460) | GI50 (DU-145) |
| --- | --- | --- | --- | --- | --- | --- | --- | --- | --- | --- | --- | --- | --- | --- | --- | --- | --- | --- | --- | --- |
| O=[N+]([O-])c1ccc(CSc2nncc3[nH]cnc23)cc1 | > 100 µM (inactive) | 77.4 µM (inactive) | > 100 µM (inactive) | > 100 µM (inactive) | 83.6 µM (inactive) | > 100 µM (inactive) | > 100 µM | > 100 µM (inactive) | > 100 µM (inactive) | > 100 µM (inactive) | > 100 µM (inactive) | > 100 µM (inactive) | > 100 µM (inactive) | > 100 µM (inactive) | > 100 µM (inactive) | > 100 µM (inactive) | > 100 µM (inactive) |  |  |  |
| O=C(C=P(c1ccccc1)(c1ccccc1)c1ccccc1)c1ccc(-c2cccc([N+](=O)[O-])c2)s1 | 50 µM (inactive) | 45.4 µM (inactive) | 36.1 µM (inactive) | 29.4 µM (inactive) |  | 75.2 µM (inactive) | 41.1 µM | 29.9 µM (inactive) | 14 µM (inactive) | 30.6 µM (inactive) |  | 19.5 µM (inactive) | > 100 µM (inactive) | 83.8 µM (inactive) | 47.3 µM (inactive) | 57.5 µM (inactive) | 44 µM (inactive) | 70.8 µM (inactive) | 39.4 µM (inactive) | > 100 µM (inactive) |
| Cc1cc2c(cc1C)[n+]([O-])c(NCCCN(C)C)c(C#N)[n+]2[O-] | 35.5 µM (inactive) | > 100 µM (inactive) | 81.5 µM (inactive) | > 100 µM (inactive) | > 100 µM (inactive) | > 100 µM (inactive) | 75.2 µM |  |  | 57.3 µM (inactive) |  | 16.1 µM (inactive) | > 100 µM (inactive) | > 100 µM (inactive) | > 100 µM (inactive) | > 100 µM (inactive) | > 100 µM (inactive) | > 100 µM (inactive) | 26.2 µM (inactive) |  |
| COC1=C(C)C(=O)C2C(C1=O)C(c1ccc(OC)c(OC)c1)[C@H]2C (some centres not stated) | > 100 µM (inactive) | > 100 µM (inactive) | > 100 µM (inactive) |  | > 100 µM (inactive) | > 100 µM (inactive) | > 100 µM | > 100 µM (inactive) | > 100 µM (inactive) | > 100 µM (inactive) |  | > 100 µM (inactive) | > 100 µM (inactive) | > 100 µM (inactive) | > 100 µM (inactive) | > 100 µM (inactive) | > 100 µM (inactive) | > 100 µM (inactive) | > 100 µM (inactive) |  |
| CCCCCCCCCCCCCC[C@@H](O)[C@H]1CC[C@H]([C@H]2CC[C@H]([C@H](O)CCCCCC[C@@H](O)CC3=C[C@H](C)OC3=O)O2)O1 | > 25 µM (inactive) | > 25 µM (inactive) | > 25 µM (inactive) | > 15.3 µM (inactive) | > 25 µM (inactive) | > 25 µM (inactive) | > 25 µM | 0.117 µM (active) | > 25 µM (inactive) | > 25 µM (inactive) |  |  | > 25 µM (inactive) | > 25 µM (inactive) | 1.75 µM (inactive) | > 25 µM (inactive) | > 25 µM (inactive) | > 25 µM (inactive) | 0.0552 µM (active) | 4.24 µM (inactive) |
| COC1=CC(=O)c2c(CCNC(=O)OCc3ccccc3)n[nH]c2C1=O | 15.4 µM (inactive) | 14.2 µM (inactive) |  | 8.07 µM (inactive) | 11 µM (inactive) | 13.2 µM (inactive) | 12.6 µM | 3.97 µM (inactive) | 18.8 µM (inactive) |  | 2.3 µM (inactive) | 13 µM (inactive) | 22.3 µM (inactive) | 34 µM (inactive) | 23.1 µM (inactive) | 19.6 µM (inactive) | 12.1 µM (inactive) |  | 15.3 µM (inactive) |  |
